In assay [1] the test system is fasting (atrophy-induced) mice, Tibialis Anterior (TA) muscle. The assay is described as follows: Fasting-induced muscle atrophy in mice treated with GSK-3 inhibitors. Type of assay: in vivo. As to conditions: for TA muscle weight (muscle atrophy): i.p. 0.5 mg CHIR98014 or 0.3 mg L803mts per mouse on day 1 and day 2 of fasting, vs fed and fasting vehicle controls (FIG. 3). The source says: All animal experiments were consistent with Israel Council on Animal Experiments guidelines and the Institutional Regulations of Animal Care and Use. Specialized personnel provided mice care in the institutional animal facility. In fasting (2 d) experiments, food was removed from cages on the fifth day after electroporation.
Mice were divided into two groups: those subjected to fasting to induce muscle atrophy, and those that were fed and used as fed control. Mice of the fasting group were injected intraperitoneally with either CHIR98014 or L803mts to examine their effect on muscle wasting. Control groups (Fed, fasting) were injected with vehicle (3% DMSO in saline). Each mouse (27-30 grams body weight) was injected with 0.3 mg L803mts or 0.5 mg CHIR98014, twice: on the first and then on the second day of fasting. Whole Tibilis anterior (TA) muscles were then collected and the weight loss in these samples over 2 days was measured.
Tideglusib (4.35 mg/ml) was mixed with 26% PEG400 (v/v), 15% Cremophor EL (v/v), and 59% ddH2O (v/v), to a total volume of 2.3 ml. Each mouse received 200 microliter (μL) (0.87 mg Tideglusib) of the solution on the first day of fasting, and 150 μL (0.65 mg Tideglusib) on the second day.
Then, the efficacy of CHIR99021, another exemplary ATP-competitive GSK3β inhibitor, was evaluated. To this, fasting (atrophy-induced) mice were injected intraperitoneally with 16 mg/kg CHIR99021 (200 μL per mouse) on day 1 and on day 2 of fasting. At the end of the experiment, mice were sacrificed, and their tibialis anterior (TA) muscles were dissected and weighed, in comparison with fed mice and untreated fasting (atrophy-induced) mice.

In assay [2] the test system is GSK-3. Particulars: background statement; cited from earlier work.

“Also recorded” adds a separate entry of the source. Non-standard residues stand in square brackets, D forms with d. *: point of attachment. Myristoyl = CCCCCCCCCCCCCC(=O)*; pS = N[C@@H](COP(=O)(O)O)C(=O)O

As for `Nc1nc(NCCNc2ncc(-n3ccnc3)c(-c3ccc(Cl)cc3Cl)n2)ccc1[N+](=O)[O-]` [CHIR98014], the “TA muscle weight (muscle atrophy)” value in assay [1] (2-day fasting mice) is “no reduction in muscle weight compared to control; also recorded: completely prevented the reduction in muscle mass”. Further, the “GSK-3 inhibition, potency and selectivity” value in assay [2] is “highly potent and selective inhibitors of GSK-3”.
Take “Myr-Gly-Lys-Glu-Ala-Pro-Pro-Ala-Pro-Pro-Gln-{Ser(p)}-Pro-NH2 (Myristoyl-GKEAPPAPPQ[pS]P-NH2; SMILES CCCCCCCCCCCCCC(=O)NCC(=O)N[C@@H](CCCCN)C(=O)N[C@@H](CCC(=O)O)C(=O)N[C@@H](C)C(=O)N1CCC[C@H]1C(=O)N1CCC[C@H]1C(=O)N[C@@H](C)C(=O)N1CCC[C@H]1C(=O)N1CCC[C@H]1C(=O)N[C@@H](CCC(N)=O)C(=O)N[C@@H](COP(=O)(O)O)C(=O)N1CCC[C@H]1C(N)=O) [L803-mts]”: in assay [1] (2-day fasting mice), the “TA muscle weight (muscle atrophy)” value is “attenuation in muscle weight; also recorded: inferior activity to that of CHIR98014”.
On to `Cc1c[nH]c(-c2cnc(NCCNc3ccc(C#N)cn3)nc2-c2ccc(Cl)cc2Cl)n1` [CHIR99021], for which, in assay [1] (fasting mice, CHIR99021 16 mg/kg i.p. on day 1 and day 2 of fasting, data not shown, 16 mg/kg), the “TA muscle weight (muscle loss)” value was “did not mitigate this muscle loss; also recorded: inferior activity”. In addition, the “GSK-3 inhibition, potency and selectivity” value in assay [2] is “highly potent and selective inhibitors of GSK-3”.
With `O=c1sn(-c2cccc3ccccc23)c(=O)n1Cc1ccccc1` [Tideglusib], in assay [1] (2-day fasting mice, Tideglusib via gavage, 0.87 mg on day 1 and 0.65 mg on day 2 (20-30 mg/kg) (FIGS. 4A-B)), the “effect on muscle atrophy (body weight and TA muscle to body weight ratio)” value is recorded as “minimal effect on preventing muscle atrophy; also recorded: minor effect in treating muscle atrophy”.

The values are drawn from US20250352544A1, “TREATMENT OF MUSCLE ATROPHY USING GSK-3 INHIBITORS” (Technion Research & Development Foundation Limited, priority 2024, published 2025).
